Results: US12729405B2, “Method and kit for determining benefit of chemotherapy” (St. Jude Children's Research Hospital, Inc., priority 2019, dated 2026)
Where two headings read alike, the source gives them in different places.

Columns and labels:
primary human ALL cells = assay: cells; settings: for response of dasatinib-resistant T-ALL: dasatinib-resistant T-ALL cases, as well as cell lines; for response of dasatinib-sensitive primary T-ALL cases to other ABL inhibitors: subset of primary T-ALL samples (N=18)
Protocol: Ex vivo Leukemia Drug Sensitivity Assay. Drug response of primary human ALL cells was evaluated using a co-culture system and flow cytometry assays. hTERT-immortalized mesenchymal stem cells ([…] Wang, et al. (2019) Nat. Commun. 10:3718) were first seeded in a 96-well plate format at a density of 10,000 cells per well in 100 μL of complete medium (RPMI-1640, L-glutamine, 10% fetal bovine serum and 1 μM Hydrocortisone). After 24 hours, leukemia cells were added at 160,000 cells per well to the stromal cell layer in 80 μL AIM-V medium along with 20 μL of drug solution prepared in the same medium. […] After 96 hours incubation at 37° C. with 5% CO2, cells were harvested and stained with CD19 or CD7 to identify leukemia blasts (for B-ALL and T-ALL, respectively). The total number of live leukemia cells were evaluated by using flow cytometry after Annexin V and DAPI staining. Drug-induced death was estimated by comparing to leukemia cells treated with the vehicle alone. The drug concentration that killed 50% of the leukemia cells (LC50 value) was determined using a dose-response model and as a measurement of drug sensitivity. Quality control was performed to remove cases with low viability (less than 1000 viable blast cells in each well in the absence of drugs on day 4).

[1] = dasatinib dosing for CML, oral twice a day; cited from earlier work

Structure (SMILES): COc1ccc(N(C(=O)Oc2c(C)cccc2C)c2ccnc(Nc3ccc(N4CCN(C)CC4)cc3)n2)c(OC)c1 [WH 4-023]
- cytotoxicity in dasatinib-sensitive cases (primary human ALL cells): potent cytotoxicity
- response of dasatinib-resistant T-ALL (primary human ALL cells): largely did not respond

Structure (SMILES): Cc1nc(Nc2ncc(C(=O)Nc3c(C)cccc3Cl)s2)cc(N2CCN(CCO)CC2)n1 [dasatinib]
- T-ALL cases classified as dasatinib-sensitive (primary human ALL cells; 45 T-ALL cases, cutoff LC50 80 nM, 15 cases): 33.3%
- CC50 (primary human ALL cells; Homo sapiens, 96 h, read-out: LC50 (mean), cases with high LC50, ALL samples, high-LC50 mode of bimodal distribution, 96 hours): 12000 nM
- CC50 (primary human ALL cells; Homo sapiens, 96 h, read-out: LC50 (mean), cases with low LC50, ALL samples (352 children and adults), low-LC50 mode of bimodal distribution, 96 hours): 5.92 nM
- CC50 (primary human ALL cells; Homo sapiens, read-out: LC50 (range), cases with high LC50, ALL samples, high-LC50 mode, 20000 nM is the assigned ceiling): 102 to 20000 nM
- CC50 (primary human ALL cells; Homo sapiens, read-out: LC50, one T-ALL case with TCF7-SP1 fusion, 0.05 nM is the assigned floor value): ≤ 0.05 nM
- CC50 (primary human ALL cells; Homo sapiens, read-out: LC50, two additional T-ALL cases with the same SPI1 fusion gene, ex vivo): 0.05 nM
- dasatinib-sensitive T-ALL in adults (primary human ALL cells; adults with T-ALL, cutoff LC50 80 nM): 16.7%
- dasatinib-sensitive T-ALL in children (primary human ALL cells; children with T-ALL, cutoff LC50 80 nM): 44.4%
- CC50 (primary human ALL cells; human, 96 h): 0.05 to 79.4 nM
- Cmax [1]: 60 to 120 nM

Structure (SMILES): Cc1ccc(NC(=O)c2ccc(CN3CCN(C)CC3)cc2)cc1Nc1nccc(-c2cccnc2)n1 [imatinib]
- response of dasatinib-sensitive primary T-ALL cases to other ABL inhibitors (primary human ALL cells): universally resistant

Structure (SMILES): Cc1cn(-c2cc(NC(=O)c3ccc(C)c(Nc4nccc(-c5cccnc5)n4)c3)cc(C(F)(F)F)c2)cn1 [nilotinib]
- response of dasatinib-sensitive primary T-ALL cases to other ABL inhibitors (primary human ALL cells): universally resistant

Structure (SMILES): COC(=O)c1ccc2c(c1)NC(=O)/C2=C(\Nc1ccc(N(C)C(=O)CN2CCN(C)CC2)cc1)c1ccccc1 [nintedanib]
- cytotoxicity in dasatinib-sensitive cases (primary human ALL cells): potent cytotoxicity
- response of dasatinib-resistant T-ALL (primary human ALL cells): largely did not respond
